Results on eight molecules are retold here after patent US6372897B1, “Mimotopic polypeptides of toxoplasma gondii and applications” (priority 1995, dated 2002).

The subject of test [1] is anti-P30 monoclonal antibody 1E1E7. In words: Spotscan overlapping pentadecapeptides on cellulose membrane, immunoreactivity with 1E1E7. It counts as binding, mouse. Particulars: 1E1E7 60 nM. On the procedure: According to the “Spotscan” technique, the synthesis of the peptides is carried out on cellulose membranes (Cambridge Research Biochemicals). The principle of the method is the same as that for Pepscan. The esterified amino acids are solubilized in N-methylpyrrolidone (NMP) at the concentration of […] and 0.9 μl are deposited at the level of spots for the deposition of bromophenol blue. After a 15 minute incubation, another deposition of amino acids is carried out followed by another 15 minute incubation. If the coupling between the two amino acids is carried out correctly, a change in color is observed (passage from blue to yellowish green). After three washes in DMF, an acetylation step is carried out with acetic anhydride. Then the terminal amino groups of the peptides being synthesized are deprotected with 20% piperidine in DMF. The deposition spots are restained with a 1% bromophenol blue solution in DMF, washed three times with methanol and dried. These operations as a whole constitute a cycle for addition of an amino acid and this cycle is repeated up to the end of the synthesis. When all the amino acids have been added, the NH2-terminal group of the last amino acid is deprotected with 20% piperidine in DMF and is acetylated with acetic anhydride. The side chain protecting groups are removed by a dichloromethane:trifluoroacetic acid:triisobutylsilane mixture (5 ml:5 ml:250 μl). The immunoreactivity of the peptides thus synthesized can then be tested by ELISA.
In order to reproduce the entire pentadecapeptide included in the phage clone isolated and to determine the possible role of the contiguous amino acids belonging to the sequence of the PIII protein of the phage (see Example 1), the chemical synthesis of overlapping pentadecapeptides, which cover the sequence […](SEQ ID No.59), was carried out on an activated cellulose membrane (“Spotscan”).
After synthesis of the various pentadecapeptides, the membrane is rinsed with methanol, washed in TBS (0.1M Tris, pH 7.2) and then incubated overnight at room temperature in saturation buffer (marketed by Cambridge Research Biochemicals). After several washes with TBS-T (0.1M Tris, pH 7.2-0.05% Tween 20), the membrane is brought into contact with a solution of anti-P30 monoclonal antibody 1E1E7 (60 nM) and incubated for 4 hours at room temperature. After three washes with TBS-T, the anti-mouse immunoglobulin conjugate labeled with galactosidase (marketed by Cambridge Research Biochemicals) is added at a 1/200 dilution and the whole is incubated for two hours at room temperature. After several washes of the membrane with PBS-Tween 0.05% and PBS, the immunoreactivity at the level of the various spots is visualized by adding a solution of substrate (5-bromo-4-chloro-3-indoyl-D-galactopyranoside in PBS containing magnesium chloride and potassium ferricyanide) and incubating for 10 to 40 minutes. The color of the spots is assessed qualitatively.

The target in test [2] is T1, phage clone identified (SEQ ID No.48) (Enterobacteria phage fd, UniProt P03661).
T1 construct: made in house; host or cells: E. coli (K19Kan), phage amplification
As to the kind of experiment: ELISA: inhibition by human serum of the attachment of monoclonal antibody 1E1E7 to the phage clone. Particulars: phages containing the sequence. In kind it is binding. As for the experimental part: The ELISA test was carried out as described in Example 2 with the following modifications: 100 μl of various dilutions of human serum of a patient infected with Toxoplasma gondii (positive serum—reference G8) are brought into contact with the. phage clone identified, immobilized as described in Example 2, for 30 minutes at 37° C. After two washes with TBS/Tween 0.05%, 100 μl of monoclonal antibody 1E1E7 at the concentration of 6 nM are added and incubated overnight at 4° C. After four washes with TBS/Tween, 100 μl of anti-mouse conjugate labeled with peroxidase are added and then incubated for one hour at 37° C. The enzymatic reaction for visualization was carried out by adding 100 μl of an H2O2/orthophenylenediamine (OPD) solution and incubating the sample for 30 minutes at room temperature. The staining reaction is stopped by adding 50 μl of 1.8N sulfuric acid. The optical density is measured on a BioMé rieux plate reader at 492 nm. Moreover, a control was produced, under the same reaction conditions but with a human serum not infected with Toxoplasma gondii (negative serum), in order to ensure that the phage clone identified reacts specifically with the human serum of a patient infected with Toxoplasma gondii.
(An ELISA detects its analyte on a solid surface through an enzyme-linked reagent.)

Test [3] has as its target phage clone displaying the pentadecapeptide Trp-His-Trp-Arg-His-Arg-Ile-Pro-Leu-Gln-Leu-Ala-Ala-Gly-Arg (SEQ ID No.48) fused in the PIII protein (filamentous phage). As to the kind of experiment: phage ELISA, phages captured by anti-M13 antibodies, 1E1E7 at 3 nM.
For test [4], the system named is anti-P30 monoclonal antibody 1E1E7. As to the kind of experiment: Competition ELISA: inhibition by native P30 protein of the ELISA response of the phage clone. In kind it is binding, mouse. Particulars: phage clone SEQ ID No.48. On the procedure:
A competition ELISA test was carried out in order to determine if the response obtained with the phage clone identified is inhibited by pre-incubation of the anti-P30 monoclonal antibody 1E1E7 with the P30 protein.
The ELISA test is carried out as described in Example 2 with the following modifications: the monoclonal antibody 1E1E7 (at the concentration of 6 nM) is preincubated with various concentrations of P30 protein for 20 minutes at 37° C. and then the mixture is added to the wells of the ELISA plate in which the phages corresponding to the pentadecapeptide Trp-His-Trp-Arg-His-Arg-Ile-Pro-Leu-Gln-Leu-Ala-Ala-Gly-Arg (SEQ ID No.48) are attached.

Ends that are not written are not given here.

Regarding HRIPLQLAAGRGAAG [SEQ ID No.9], the “Color of the spots (immunoreactivity), assessed qualitatively” value in test [1] is “maximum”.
Still for that read-out and setting: to IPLQLAAGRGAAGAE [SEQ ID No.33] belongs “very slight color”; to PLQLAAGRGAAGAET [SEQ ID No.34], “disappears completely”.
Turning to RIPLQLAAGRGAAGA [SEQ ID No.32], in test [1], the “Color of the spots (immunoreactivity), assessed qualitatively” value is listed as “maximum”.
The same measure, in the same setting: to SADGAWHWRHRIPLQ [SEQ ID No.231] belongs “a first color”.
For the molecule WHWRHRIPLQLAAGR [SEQ ID No.48], in test [2], the “Recognition by the antibodies present in the sera of patients infected with Toxoplasma gondii” value is on record as “indeed recognized”.
In turn, “anti-P30 monoclonal antibody 1E1E7 (BioMerieux)” showed an OD (492 nm) in test [3] of 0.269 to 0.274 OD 492 nm.

B1: P30 protein: the Toxoplasma gondii major antigen, peptide sequence identified by SEQ ID No.1 (protein)
chain: MSVSLHHFIISSGFLTSMFPKAVRRAVTAGVFAAPTLMSFLRCGVMASDPPLVANQVVTCPDKKSTAAVILTPTENHFTLKCPKTALTEPPTLAYSPNRQICPAGTTSSCTSKAVTLSSLIPEAEDSWWTGDSASLDTAGIKLTVPIEKFPVTTQTFVVGCIKGDDAQSCMVTVTVQARASSVVNNVARCSYGADSTLGPVKLSAEGPTTMTLVCGKDGVKVPQDNNQYCSGTTLTGCNEKSFKDILPKLTENPWQGNASSDKGATLTINKEAFPAESKSVIIGCTGGSPEKHHCTVKLEFAGAAGSAKSSAGTASHVSIFAMVTGLIGSIAACVA
Turning to B1, the “Inhibition of the ELISA response” value in test [4] (P30 protein 35 ng/ml preincubated with 6 nM 1E1E7) came to 45%; in test [4] (P30 protein 3.5 μg/ml preincubated with 6 nM 1E1E7) it was 80%.
